Measurements published in patent US5389627A, “Cephem compounds” (priority 1993, dated 1995).
In brackets after ≈: the same amount, converted by molar mass.

Assays:
Assay in all cases: In vitro antibacterial activity, minimum inhibitory concentration
Type in all cases: cell-based
E.coli C4002 = conditions: Escherichia coli; E.coli C4002; read-out: Minimum Inhibitory Concentration (MIC)
Text: (§1) As reference compounds, Cefotaxime (CTX), Ceftazidime (CAZ) and Cefpirome (CPR) were employed.

S.aureus C4036 = conditions: Staphylococcus aureus; S.aureus C4036; read-out: Minimum Inhibitory Concentration (MIC)
Text: as §1

S.Faecalis ATCC29212 = conditions: Enterococcus faecalis
Text: as §1

S.pyogenes ATCC 8668 = conditions: Streptococcus pyogenes, ATCC8668; S.pyogenes ATCC 8668; read-out: Minimum Inhibitory Concentration (MIC)
Text: as §1

K.pneumoniae C1040 = conditions: Klebsiella pneumoniae; K.pneumoniae C1040; read-out: Minimum Inhibitory Concentration (MIC)
Text: as §1

E.cloacae C4009 = conditions: Enterobacter cloacae; E.cloacae C4009; read-out: Minimum Inhibitory Concentration (MIC)
Text: as §1

E.coli ATCC10536 = conditions: Escherichia coli; E.coli ATCC10536; read-out: Minimum Inhibitory Concentration (MIC)
Text: as §1

S.aureus Smith = conditions: Staphylococcus aureus; S.aureus Smith; read-out: Minimum Inhibitory Concentration (MIC)
Text: as §1

S.epidermidis ATCC12228 = conditions: Staphylococcus epidermidis; S.epidermidis ATCC12228; read-out: Minimum Inhibitory Concentration (MIC)
Text: as §1

S.aureus ATCC29213 = conditions: Staphylococcus aureus; S.aureus ATCC29213; read-out: Minimum Inhibitory Concentration (MIC)
Text: as §1

S.typhimurium C4045 = conditions: Salmonella enterica; S.typhimurium C4045; read-out: Minimum Inhibitory Concentration (MIC)
Text: as §1

MRSA C2208 = conditions: Staphylococcus aureus; MRSA C2208; read-out: Minimum Inhibitory Concentration (MIC)
Text: as §1

S.marcescens C1052 = conditions: Serratia marcescens; S.marcescens C1052; read-out: Minimum Inhibitory Concentration (MIC)
Text: as §1

P.aeruginosa C2027 = conditions: Pseudomonas aeruginosa; P.aeruginosa C2027; read-out: Minimum Inhibitory Concentration (MIC)
Text: as §1

P.mirabilis ATCC25933 = conditions: Proteus mirabilis; P.mirabilis ATCC25933; read-out: Minimum Inhibitory Concentration (MIC)
Text: as §1

P.aeruginosa ATCC27853 = conditions: Pseudomonas aeruginosa; P.aeruginosa ATCC27853; read-out: Minimum Inhibitory Concentration (MIC)
Text: as §1

P.aeruginosa ATCC10145 = conditions: Pseudomonas aeruginosa; P.aeruginosa ATCC10145; read-out: Minimum Inhibitory Concentration (MIC)
Text: as §1

K.oxytoca C4022 = conditions: Klebsiella oxytoca; K.oxytoca C4022; read-out: Minimum Inhibitory Concentration (MIC)
Text: as §1

S.pyogenes C4003 = conditions: Streptococcus pyogenes; S.pyogenes C4003; read-out: Minimum Inhibitory Concentration (MIC)
Text: as §1

S.marcescens ATCC27117 = conditions: Serratia marcescens; S.marcescens ATCC27117; read-out: Minimum Inhibitory Concentration (MIC)
Text: as §1

E.coli ATCC25922 = conditions: Escherichia coli; E.coli ATCC25922; read-out: Minimum Inhibitory Concentration (MIC)
Text: as §1

E.cloacae C4008 = conditions: Enterobacter cloacae; E.cloacae C4008; read-out: Minimum Inhibitory Concentration (MIC)
Text: as §1

P.aeruginosa C4070 = conditions: Pseudomonas aeruginosa; P.aeruginosa C4070; read-out: Minimum Inhibitory Concentration (MIC)
Text: as §1

P.rettgeri ATCC9919 = conditions: Providencia rettgeri; P.rettgeri ATCC9919; read-out: Minimum Inhibitory Concentration (MIC)
Text: as §1

K.pneumoniae ATCC10031 = conditions: Klebsiella pneumoniae; K.pneumoniae ATCC10031; read-out: Minimum Inhibitory Concentration (MIC)
Text: as §1

Structure (SMILES)	MIC (E.coli C4002) [µg/mL]	MIC (S.aureus C4036) [µg/mL]	MIC (S.Faecalis ATCC29212) [µg/mL]	MIC (S.pyogenes ATCC 8668) [µg/mL]	MIC (K.pneumoniae C1040) [µg/mL]	MIC (E.cloacae C4009) [µg/mL]	MIC (E.coli ATCC10536) [µg/mL]	MIC (S.aureus Smith) [µg/mL]	MIC (S.epidermidis ATCC12228) [µg/mL]	MIC (S.aureus ATCC29213) [µg/mL]	MIC (S.typhimurium C4045) [µg/mL]	MIC (MRSA C2208) [µg/mL]	MIC (S.marcescens C1052) [µg/mL]	MIC (P.aeruginosa C2027) [µg/mL]	MIC (P.mirabilis ATCC25933) [µg/mL]	MIC (P.aeruginosa ATCC27853) [µg/mL]	MIC (P.aeruginosa ATCC10145) [µg/mL]	MIC (K.oxytoca C4022) [µg/mL]	MIC (S.pyogenes C4003) [µg/mL]	MIC (S.marcescens ATCC27117) [µg/mL]	also measured
CO/N=C(\C(=O)N[C@@H]1C(=O)N2C(C(=O)[O-])=C(C[n+]3ccc4c(c3)[nH]c(=O)n4C)CS[C@H]12)c1nsc(N)n1 [Ex. 6, 7-β-[(Z)-2-(5-Amino-1,2,4-thiadiazol-3-yl)-2-methoxyiminoacetamido]-3-[1-methyl-2-(3H)-oxo-imidazo[4,5-c]pyridiniummethyl]-3-cephem-4-carboxylate]	0.025 (≈ 0.0458 µM)	3.13 (≈ 5.74 µM)	> 100	0.007 (≈ 0.0128 µM)	0.007 (≈ 0.0128 µM)	0.013 (≈ 0.0238 µM)	0.007 (≈ 0.0128 µM)	3.13 (≈ 5.74 µM)	1.56 (≈ 2.86 µM)	3.13 (≈ 5.74 µM)	0.025 (≈ 0.0458 µM)	> 100	0.05 (≈ 0.0916 µM)	1.56 (≈ 2.86 µM)	0.025 (≈ 0.0458 µM)	3.13 (≈ 5.74 µM)	1.56 (≈ 2.86 µM)	1.56 (≈ 2.86 µM)	0.004 (≈ 0.00733 µM)	0.025 (≈ 0.0458 µM)	MIC (E.coli ATCC25922): 0.025 µg/mL (≈ 0.0458 µM); MIC (E.cloacae C4008): 0.013 µg/mL (≈ 0.0238 µM); MIC (P.aeruginosa C4070): 3.13 µg/mL (≈ 5.74 µM); MIC (P.rettgeri ATCC9919): 0.007 µg/mL (≈ 0.0128 µM); MIC (K.pneumoniae ATCC10031): 0.007 µg/mL (≈ 0.0128 µM)
Nc1nc(/C(=N/O)C(=O)N[C@@H]2C(=O)N3C(C(=O)[O-])=C(C[n+]4ccc5[nH]c(=O)[nH]c5c4)CS[C@H]23)ns1 [Ex. 7, 7-β-[(Z)-2-(5-Amino-1,2,4-thiadiazol-3-yl)-2-hydroxyiminoacetamido]-3-[2-(1H, 3H)-oxo-imidazo[4,5-c]pyridiniummethyl]-3-cephem-4-carboxylate]	6.25 (≈ 12.1 µM)	1.56 (≈ 3.01 µM)	> 100	0.1 (≈ 0.193 µM)	1.56 (≈ 3.01 µM)	0.1 (≈ 0.193 µM)	0.025 (≈ 0.0483 µM)	6.25 (≈ 12.1 µM)	3.13 (≈ 6.05 µM)	0.78 (≈ 1.51 µM)	0.1 (≈ 0.193 µM)	> 100	0.2 (≈ 0.386 µM)	6.25 (≈ 12.1 µM)	0.1 (≈ 0.193 µM)	50 (≈ 96.6 µM)	12.5 (≈ 24.2 µM)	1.56 (≈ 3.01 µM)	0.2 (≈ 0.386 µM)	0.1 (≈ 0.193 µM)	MIC (E.coli ATCC25922): 0.05 µg/mL (≈ 0.0966 µM); MIC (E.cloacae C4008): 0.1 µg/mL (≈ 0.193 µM); MIC (P.aeruginosa C4070): 50 µg/mL (≈ 96.6 µM); MIC (P.rettgeri ATCC9919): 0.5 µg/mL (≈ 0.966 µM); MIC (K.pneumoniae ATCC10031): 0.025 µg/mL (≈ 0.0483 µM)
Nc1nc(/C(=N/OCC(=O)O)C(=O)N[C@@H]2C(=O)N3C(C(=O)[O-])=C(C[n+]4ccc5[nH]c(=O)[nH]c5c4)CS[C@H]23)ns1 [Ex. 8, 7-β-[(Z)-2-(5-Amino-1,2,4-thiadiazol-3-yl)-2-carboxymethoxyiminoacetamido]-3-[2-(1H,3H)-oxo-imidazo[4,5-c]pyridiniummethyl]-3-cephem-4-carboxylate]	3.13 (≈ 5.44 µM)	1.56 (≈ 2.71 µM)	> 100	0.1 (≈ 0.174 µM)	0.05 (≈ 0.0869 µM)	0.013 (≈ 0.0226 µM)	0.013 (≈ 0.0226 µM)	3.13 (≈ 5.44 µM)	1.56 (≈ 2.71 µM)	0.78 (≈ 1.36 µM)	0.05 (≈ 0.0869 µM)	> 100	0.2 (≈ 0.347 µM)	3.13 (≈ 5.44 µM)	0.05 (≈ 0.0869 µM)	3.13 (≈ 5.44 µM)	3.13 (≈ 5.44 µM)	0.782 (≈ 1.36 µM)	0.196 (≈ 0.341 µM)	0.1 (≈ 0.174 µM)	MIC (E.coli ATCC25922): 0.05 µg/mL (≈ 0.0869 µM); MIC (E.cloacae C4008): 0.013 µg/mL (≈ 0.0226 µM); MIC (P.aeruginosa C4070): 6.25 µg/mL (≈ 10.9 µM); MIC (P.rettgeri ATCC9919): 0.025 µg/mL (≈ 0.0434 µM); MIC (K.pneumoniae ATCC10031): 0.013 µg/mL (≈ 0.0226 µM)
Nc1nc(/C(=N/OCF)C(=O)N[C@@H]2C(=O)N3C(C(=O)[O-])=C(C[n+]4ccc5[nH]c(=O)[nH]c5c4)CS[C@H]23)ns1 [Ex. 9, 7-β-[(Z)-2-(5-Amino-1,2,4-thiadiazol-3-yl)-2-fluoromethoxyiminoacetamido]-3-[2-(1H, 3H)-oxo-imidazo[4,5-c]pyridiniummethyl]-3-cephem-4-carboxylate]	0.004 (≈ 0.00728 µM)	3.13 (≈ 5.7 µM)	> 100	0.007 (≈ 0.0127 µM)	0.004 (≈ 0.00728 µM)	0.013 (≈ 0.0237 µM)	0.007 (≈ 0.0127 µM)	1.56 (≈ 2.84 µM)	0.78 (≈ 1.42 µM)	1.56 (≈ 2.84 µM)	0.007 (≈ 0.0127 µM)	> 100	0.004 (≈ 0.00728 µM)	0.78 (≈ 1.42 µM)	0.025 (≈ 0.0455 µM)	0.78 (≈ 1.42 µM)	1.56 (≈ 2.84 µM)	1.56 (≈ 2.84 µM)	0.007 (≈ 0.0127 µM)	0.007 (≈ 0.0127 µM)	MIC (E.coli ATCC25922): 0.026 µg/mL (≈ 0.0473 µM); MIC (E.cloacae C4008): 0.013 µg/mL (≈ 0.0237 µM); MIC (P.aeruginosa C4070): 3.13 µg/mL (≈ 5.7 µM); MIC (P.rettgeri ATCC9919): 0.004 µg/mL (≈ 0.00728 µM); MIC (K.pneumoniae ATCC10031): 0.002 µg/mL (≈ 0.00364 µM)
